Assay results: patent US20250134874A1, “PHARMACEUTICAL FORMULATIONS COMPRISING 3-({[(4R)-7-{METHYL[4-(PROPAN-2-YL)PHENYL]AMINO}-3,4-DIHYDRO-2H-1-BENZOPYRAN-4-YL]METHYL}AMINO)PYRIDINE-4-CARBOXYLIC ACID” (TACHYON THERAPEUTICS, INC., priority 2021, published 2025)
pEC50, pIC50: −log10 of the molar value.

Tested on: 301 cancer cell lines from different tumor types (OncoPanel; HD Biosciences)
Assay: 2D cell viability inhibition assay (CellTiter-Glo) in cancer cell line panel
Type: cell-based
Design: key to AUC: AUC as fraction of the no-inhibition area (dose range × 0–100 % of control)
Settings: for Emax: in %
Protocol: In a larger screening study, compound 1 was evaluated across a broad cancer cell line panel (OncoPanel; HD Biosciences) composed of 301 cancer cell lines from different tumor types.
2D cell viability inhibition assays were performed in multiwell plates seeded with cells from the panel. After seeding, the plates were cultured overnight in a humidified incubator at 37° C. to promote adherence. Assays were initiated in individual wells by adding either DMSO as a vehicle control, growth media as a blank, or serially diluted compound 1 (10 μM to 0.0005 μM with 1:3 serial dilution). Cultures were incubated for 168 hours after which the number of viable cells in each test well was assessed using the CellTiter-Glo® Luminescent Cell Viability Assay. Luminescence readouts were performed using an EnVision® Multilabel Reader and the compound 1 readouts were normalized to the DMSO control readouts, expressed as a percent of the control. Outliers were flagged out by visual inspection. Percent of control was plotted against the corresponding compound 1 concentration and the absolute IC50 value was determined using four-parameter logistic non-linear regression as the concentration where inhibition was 50% of the control. For maximum inhibition <50%, the absolute IC50 was reported as >10. In addition to EC50 and IC50, AUC was determined and was normalized to the area corresponding to theoretical no-inhibition (the rectangular area defined by the compound dose range and 0 to 100 in y). Emax was recorded as the minimum in y with the compound dose range. For those cell lines where Emax>40, EC50 was manually set to 10 μM. A hierarchical clustering algorithm based on Euclidean distance between the standardized input values and “Ward.D” method as implemented in R hclust function was used to visualize the compound 1 cellular potency data. The sensitive/moderate/resistant calls for each cell line was determined by visually inspecting the resulting clustering dendrogram. All the analyses were done in R Core Team.

CC(C)c1ccc(N(C)c2ccc3c(c2)OCC[C@H]3CNc2cnccc2C(=O)O)cc1 [Compound 1, 3-({[(4R)-7-{methyl[4-(propan-2-yl)phenyl]amino}-3,4-dihydro-2H-1-benzopyran-4-yl]methyl}amino)pyridine-4-carboxylic acid]
AUC (NCIH23 cell line): 0.6227
AUC (NCIH69 cell line): 0.2802
Emax (NCIH69 cell line): 1.271
AUC (NCIH82 cell line): 0.2502
AUC (NCIH209 cell line): 0.1869
Emax (NCIH209 cell line): 8.61
AUC (NCIH358 cell line): 0.4332
Emax (NCIH358 cell line): 22.66
AUC (NCIH441, lung, adenocarcinoma, 168 hours): 0.7804
AUC (NCIH446 cell line): 0.5837
AUC (NCIH460 cell line): 0.3714
Emax (NCIH460 cell line): 7.705
AUC (NCIH508 cell line): 0.3378
Emax (NCIH508 cell line): 3.207
AUC (NCIH520 cell line): 0.3237
AUC (NCIH522 cell line): 0.4447
Emax (NCIH522 cell line): 15.14
AUC (NCIH524 cell line): 0.3617
Emax (NCIH524 cell line): 12.7766
AUC (NCIH596, lung, mixed adenosquamous carcinoma, 168 hours): 0.8151
AUC (NCIH647 cell line): 0.4942
Emax (NCIH647 cell line): 28.29
AUC (NCIH661 cell line): 0.3608
Emax (NCIH661 cell line): 9.075
AUC (NCIH716 cell line): 0.3799
Emax (NCIH716 cell line): 12.75
AUC (NCIH929 cell line): 0.5285
AUC (NCIH1048 cell line): 0.1479
AUC (NCIH1092 cell line): 0.479
Emax (NCIH1092 cell line): 26.4
AUC (NCIH1155 cell line): 0.07571
AUC (NCIH1299 cell line): 0.3508
Emax (NCIH1299 cell line): 12.65
AUC (NCIH1355 cell line): 0.5594
AUC (NCIH1395, lung, adenocarcinoma, 168 hours): 0.8542
AUC (NCIH1435, lung, non-small cell carcinoma, 168 hours): 0.7612
AUC (NCIH1436 cell line): 0.4953
Emax (NCIH1436 cell line): 34.4
AUC (NCIH1437 cell line): 0.4082
Emax (NCIH1437 cell line): 14.97
AUC (NCIH1563, lung, adenocarcinoma, 168 hours): 0.9652
AUC (NCIH1573, lung, adenocarcinoma, 168 hours): 0.7482
AUC (NCIH1618 cell line): 0.02266
pEC50 (NCIH1618 cell line): 9.29
pIC50 (NCIH1618 cell line): > 9.30
AUC (NCIH1623 cell line): 0.522
AUC (NCIH1650, lung, bronchioloalveolar adenocarcinoma, 168 hours): 0.8746
AUC (NCIH1666 cell line): 0.2983
AUC (NCIH1694 cell line): 0.3214
Emax (NCIH1694 cell line): 21.59
AUC (NCIH1703 cell line): 0.4204
Emax (NCIH1703 cell line): 21.7324
AUC (NCIH1734 cell line): 0.6734
AUC (NCIH1755, lung, adenocarcinoma, 168 hours): 1.29
AUC (NCIH1793 cell line): 0.4916
Emax (NCIH1793 cell line): 27.48
AUC (NCIH1836 cell line): 0.3332
AUC (NCIH1838, lung, non-small cell carcinoma, 168 hours): 0.7858
AUC (NCIH1930 cell line): 0.5402
AUC (NCIH1944 cell line): 0.5809
Emax (NCIH1944 cell line): 37.59
AUC (NCIH1975 cell line): 0.529
AUC (NCIH2009, lung, adenocarcinoma, 168 hours): 0.7914
AUC (NCIH2023 cell line): 0.2884
AUC (NCIH2081 cell line): 0.3049
AUC (NCIH2087 cell line): 0.3822
AUC (NCIH2122 cell line): 0.5019
AUC (NCIH2171 cell line): 0.7416
AUC (NCIH2172 cell line): 0.6812
AUC (NCIH2228 cell line): 0.6864
AUC (NCIH2286 cell line): 0.2917
AUC (NCIH2291 cell line): 0.3822
Emax (NCIH2291 cell line): 13.48
AUC (NCIH2347 cell line): 0.5778
Emax (NCIH2347 cell line): 40.29
AUC (NCIN87 cell line): 0.3132
AUC (NIHOVCAR3, ovary, NS, 168 hours): 0.7771
AUC (NMCG1, central nervous system, NS, 168 hours): 0.7013
AUC (NOMO1 cell line): 0.3293
AUC (NUGC3 cell line): 0.3824
Emax (NUGC3 cell line): 16
AUC (NUGC4 cell line): 0.4642
Emax (NUGC4 cell line): 24.53
pEC50 (OCUM1, OCUM1 cell line): ≤ 5.00
pIC50 (OCUM1, OCUM1 cell line): 8.11
AUC (OCUM1 cell line): 0.5324
Emax (OCUM1 cell line): 32.42
AUC (ONS76, central nervous system, NS, 168 hours): 0.7336
AUC (OSRC2 cell line): 0.6658
AUC (OVISE cell line): 0.5405
pIC50 (OVISE cell line): 7.62
AUC (P31FUJ cell line): 0.286
AUC (PANC1 cell line): 0.5543
AUC (PANC0213 cell line): 0.5829
pEC50 (PANC0213 cell line): 7.67
pIC50 (PANC0213 cell line): 7.45
AUC (PC3 cell line): 0.502
Emax (PC3 cell line): 26.1466
AUC (PECAPJ34CLONEC12 cell line): 0.311
pEC50 (PECAPJ34CLONEC12 cell line): 8.42
pIC50 (PECAPJ34CLONEC12 cell line): 8.40
AUC (PF382 cell line): 0.2761
AUC (PLCPRF5 cell line): 0.5107
AUC (RCM1 cell line): 0.6711
AUC (RD cell line): 0.4703
Emax (RD cell line): 27.42
AUC (REH cell line): 0.0957
AUC (RERFLCMS cell line): 0.6415
pEC50 (RERFLCMS cell line): 7.63
pIC50 (RERFLCMS cell line): 7.18
AUC (RKO cell line): 0.3827
Emax (RKO cell line): 11.05
AUC (RL cell line): 0.2366
AUC (RPMI7951, skin, NS, 168 hours): 0.8067
AUC (RPMI8226 cell line): 0.4363
Emax (RPMI8226 cell line): 12.46
AUC (RT11284 cell line): 0.3717
AUC (SAOS2, bone, NS, 168 hours): 1.081
AUC (SCABER cell line): 0.5687
Emax (SCABER cell line): 32.32
AUC (SCC4 cell line): 0.4619
Emax (SCC4 cell line): 26.08
AUC (SCC9, upper aerodigestive tract, squamous cell carcinoma, 168 hours): 0.9424
AUC (SCC15, upper aerodigestive tract, squamous cell carcinoma, 168 hours): 0.9489
AUC (SCC25, upper aerodigestive tract, squamous cell carcinoma, 168 hours): 0.7789
AUC (SHSY5Y cell line): 0.4927
Emax (SHSY5Y cell line): 25.04
AUC (SKBR3 cell line): 0.4396
Emax (SKBR3 cell line): 26.59
AUC (SKCO1 cell line): 0.5952
AUC (SKHEP1, liver, adenocarcinoma, 168 hours): 0.7091
AUC (SKLU1 cell line): 0.5662
AUC (SKMEL1 cell line): 0.4427
Emax (SKMEL1 cell line): 22.0664
AUC (SKMEL2 cell line): 0.6392
AUC (SKMEL3 cell line): 0.6207
AUC (SKMEL5 cell line): 0.4074
Emax (SKMEL5 cell line): 8.228
AUC (SKMEL24, skin, NS, 168 hours): 0.7882
AUC (SKMEL28 cell line): 0.2796
AUC (SKMEL31, skin, NS, 168 hours): 0.7393
AUC (SKMES1 cell line): 0.6069
AUC (SKNSH, autonomic ganglia, NS, 168 hours): 0.7295
AUC (SKOV3, ovary, adenocarcinoma, 168 hours): 0.9901
AUC (SNB19 cell line): 0.4677
Emax (SNB19 cell line): 20.73
AUC (SNGM cell line): 0.9165
pEC50 (SNGM cell line): 5.38
pIC50 (SNGM cell line): 5.31
AUC (SNU5 cell line): 0.6837
AUC (SNU16 cell line): 0.2821
AUC (SNU398 cell line): 0.4911
Emax (SNU398 cell line): 25.8616
pEC50 (SNU668, SNU668 cell line): 7.89
pIC50 (SNU668, SNU668 cell line): 7.72
AUC (SNU668 cell line): 0.464
AUC (SNU761 cell line): 0.5814
pEC50 (SNU761 cell line): ≤ 5.00
pIC50 (SNU761 cell line): 7.40
pIC50 (SNU878, SNU878 cell line): < 5.00
AUC (SNU878 cell line): 0.6648
AUC (SNU886 cell line): 0.6425
pIC50 (SNU-886, SNU886 cell line): < 5.00
AUC (SNUC1, large intestine, adenocarcinoma, 168 hours): 0.7478
AUC (SNUC2A cell line): 0.615
pEC50 (SNUC2A cell line): 7.61
pIC50 (SNUC2A cell line): 7.28
AUC (SUPT1 cell line): 0.6913
AUC (SW48 cell line): 0.6038
AUC (SW480 cell line): 0.409
Emax (SW480 cell line): 20.36
pIC50 (SW579, 168 h, SW579, thyroid, anaplastic carcinoma, 168 hours): < 5.00
AUC (SW579, thyroid, anaplastic carcinoma, 168 hours): 0.9203
AUC (SW620 cell line): 0.4658
AUC (SW780 cell line): 0.4491
Emax (SW780 cell line): 13.9761
AUC (SW837, large intestine, adenocarcinoma, 168 hours): 0.7109
pIC50 (SW1271, 168 h, SW1271, lung, small cell carcinoma, 168 hours): < 5.00
AUC (SW1271, lung, small cell carcinoma, 168 hours): 0.8179
AUC (SW1417, large intestine, adenocarcinoma, 168 hours): 0.9634
AUC (SW1463 cell line): 0.3408
Emax (SW1463 cell line): 7.126
AUC (SW1710 cell line): 0.5768
AUC (SW1990 cell line): 0.6894
AUC (T24, urinary tract, transitional cell carcinoma, 168 hours): 0.9289
AUC (T84 cell line): 0.4928
AUC (T.T cell line): 0.4321
Emax (T.T cell line): 24.08
AUC (TALL1 cell line): 0.1999
AUC (TE1, oesophagus, squamous cell carcinoma, 168 hours): 0.938
AUC (TE4 cell line): 0.3948
pEC50 (TE4 cell line): 8.04
pIC50 (TE4 cell line): 7.90
Emax (TE4 cell line): 11.49
AUC (TE5 cell line): 0.3877
Emax (TE5 cell line): 15.07
AUC (TE6 cell line): 0.3625
Emax (TE6 cell line): 14.02
AUC (TE8, oesophagus, squamous cell carcinoma, 168 hours): 0.816
AUC (TE9 cell line): 0.4247
Emax (TE9 cell line): 25.31
AUC (TE10 cell line): 0.5293
Emax (TE10 cell line): 29.65
AUC (TE11 cell line): 0.304
AUC (TE14 cell line): 0.3068
pEC50 (TE14 cell line): 8.63
pIC50 (TE14 cell line): 8.47
AUC (TE15, oesophagus, squamous cell carcinoma, 168 hours): 1.084
AUC (TF1 cell line): 0.2883
AUC (THP1 cell line): 0.3371
AUC (TOV112D cell line): 0.3964
Emax (TOV112D cell line): 23.19
AUC (U2OS cell line): 0.4065
Emax (U2OS cell line): 9.064
AUC (U87MG cell line): 0.514
Emax (U87MG cell line): 38.45
AUC (U937 cell line): 0.1808
AUC (UACC812, breast, ductal carcinoma, 168 hours): 0.8418
AUC (UMUC3 cell line): 0.5934
AUC (VCAP, prostate, adenocarcinoma, 168 hours): 0.7822
AUC (WM115 cell line): 0.6097
AUC (WM2664 cell line): 0.5838
AUC (WSUDLCL2 cell line): 0.2829
AUC (YD38 cell line): 0.2983
pEC50 (YD38 cell line): 8.45
pIC50 (YD38 cell line): 8.42
